Measurements reported in patent US8877791B2, “Inhibitors of pyruvate kinase and methods of treating disease” (Beth Israel Deaconess Medical Center, Inc., priority 2006, dated 2014).

Tests used:
PKM2 = PKM2 (Homo sapiens (Human), UniProt P14618); test: Recombinant PKM2 enzyme activity in the presence of FBP (LDH-coupled NADH consumption); assay type: biochemical; conditions: for IC50: recombinant pyruvate kinase, enzyme activity at various concentrations of inhibitor, read-out: IC50 in vitro (PKM2); for PKM2 inhibition of enzyme activity relative to the absence of compound: screening concentration estimated at 50 μM
Chain of PKM2 (P14618 whole entry, species assumed): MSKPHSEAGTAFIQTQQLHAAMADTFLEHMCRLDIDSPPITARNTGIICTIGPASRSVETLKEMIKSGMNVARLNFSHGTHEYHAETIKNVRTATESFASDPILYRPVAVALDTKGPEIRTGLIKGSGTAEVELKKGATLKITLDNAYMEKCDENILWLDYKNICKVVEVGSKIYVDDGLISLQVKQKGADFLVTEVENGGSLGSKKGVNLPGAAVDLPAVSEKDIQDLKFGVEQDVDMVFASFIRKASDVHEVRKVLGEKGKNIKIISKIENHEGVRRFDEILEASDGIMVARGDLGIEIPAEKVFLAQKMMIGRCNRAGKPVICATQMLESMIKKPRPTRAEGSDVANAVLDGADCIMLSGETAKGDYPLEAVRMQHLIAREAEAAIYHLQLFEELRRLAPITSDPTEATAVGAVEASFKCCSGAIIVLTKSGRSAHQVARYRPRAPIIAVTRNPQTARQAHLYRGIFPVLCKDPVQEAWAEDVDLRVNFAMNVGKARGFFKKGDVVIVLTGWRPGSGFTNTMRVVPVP
Protocol: (§1) Recombinant PKM1 and PKM2 were expressed in E. coli and purified using an Ni-NTA column according to standard protocols. PKM2 ([…]) was mixed with the following components: 0.6 mM ADP, 0.5 mM phosphoenolpyruvate, 200 μM NADH, 1-4 units of lactate dehydrogenase, 50 μM FBP, 1 mM DTT, 0.02% Brij 35, 5% glycerol, and the test molecule with a final DMSO concentration of 5%. A control reaction lacked the test molecule. The test molecules used in this example were selected from a library containing over 100,000 compounds.
Primary screening was performed using PKM2 in the presence of FBP. […] Activity was measured by monitoring the concentration of NADH. Pyruvate, produced by the enzymatic activity of pyruvate kinase, is converted into lactate by lactate dehydrogenase, which requires the consumption of NADH (NADH→NAD^+). Thus, the activity of PKM2 was indirectly measured by monitoring the consumption of NADH through fluorescence assays. Additionally, the activity of the PKM2 enzyme was directly monitored by measuring the production of ATP, as ATP is produced when phosphoenolpyruvate is converted to pyruvate by PKM2.
(§2) For in vitro studies, recombinant pyruvate kinase was incubated with the compound indicated (Table 2) and the activity of the enzyme assessed, as described in Example 4. To determine the IC50, enzyme activity was determined at various concentrations of inhibitor. The percentages shown in Table 2 reflect the inhibition of enzyme activity relative to the absence of compound when the enzyme is incubated with 50 μM of the compound indicated. For in vivo studies, human lung cancer cell lines were incubated with increasing concentrations of the compound indicated and the concentration required to kill >90% of the cells is reported.

[1] = test system: H1299 and A549 human lung cancer cells; test: Killing of human lung cancer cell lines by increasing concentrations of compound; assay type: cell-based; conditions: concentration required to kill >90% of the cells, read-out: IC50 in vivo
Protocol: as §2
Human lung cancer cells were exposed to increasing concentrations of candidate compounds A2 and D1. The toxicity of the compounds was measured by determining the percentage of surviving cells. Cells were mock-treated with DMSO as a control. […] depicts the toxicity of compounds A2 (FIG. 8a) and D1 (FIG. 8b) in H1299 cells compared to mock treatment with DMSO.

PKM1 = PKM1 (Homo sapiens (Human), UniProt P14618); test: Recombinant PKM1 enzyme activity (same screening method); assay type: biochemical; conditions: screening concentration estimated at 50 μM
Chain of PKM1 (P14618 other isoform, or with tags, fused parts or gaps, species assumed): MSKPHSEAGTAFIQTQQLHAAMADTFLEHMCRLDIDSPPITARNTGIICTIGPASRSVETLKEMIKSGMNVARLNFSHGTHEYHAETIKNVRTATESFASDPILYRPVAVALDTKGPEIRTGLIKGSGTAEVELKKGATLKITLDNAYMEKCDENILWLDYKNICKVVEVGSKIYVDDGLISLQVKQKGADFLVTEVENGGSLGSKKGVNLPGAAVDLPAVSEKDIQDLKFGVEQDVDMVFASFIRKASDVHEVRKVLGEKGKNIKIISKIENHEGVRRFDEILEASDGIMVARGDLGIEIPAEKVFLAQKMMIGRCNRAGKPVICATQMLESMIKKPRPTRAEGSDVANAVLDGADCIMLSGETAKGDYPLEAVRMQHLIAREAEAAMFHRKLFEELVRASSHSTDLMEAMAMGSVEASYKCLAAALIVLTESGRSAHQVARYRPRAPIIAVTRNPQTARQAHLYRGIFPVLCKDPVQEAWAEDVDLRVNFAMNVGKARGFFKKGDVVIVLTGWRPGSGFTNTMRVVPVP
Protocol: as §1
This same screening method was then used to retest candidate molecules for the inhibition of PKM1 to determine which candidate compounds are active against PKM2, but not PKM1.
as §2

FL5.12 cells = test: Toxicity in FL5.12 cells with and without growth factor (IL-3); assay type: cell-based, mouse; conditions: twenty hours of treatment, presence and absence of IL-3
Protocol: Mouse pre-lymphocyte cells (FL5.12 cells) were treated with candidate compounds A2 (FIG. 9a) and D1 (FIG. 9b) for twenty hours in the presence and absence of growth factor (IL-3).

| SMILES | IC50 (PKM2) [µM] | PKM2 inhibition of enzyme activity relative to the absence of compound (PKM2) [%] | Concentration killing >90% of cells [1] [µM] | PKM1 inhibition of enzyme activity relative to the absence of compound (PKM1) [%] | Toxicity in FL5.12 cells, effect of growth factor withdrawal (FL5.12 cells) |
| --- | --- | --- | --- | --- | --- |
| CC(=O)CSc1ccc(-n2c(C)ccc2C)cc1 [Compound A1] | ~90 | 50 | > 100 | 15 |  |
| CCCCCN1/C(=C/C=C/c2n(CCCCC)c3cc(Cl)c(Cl)cc3[n+]2CCCC)N(CCCC)c2cc(Cl)c(Cl)cc21 [Compound B1] | ~10 | 85 |  | 0 |  |
| O=C(O)CN1C(=O)/C(=C/c2ccc(OC(=O)c3ccccc3I)cc2)SC1=S [Compound D1] | 20 | 70 | ~250 | 15 | Growth factor withdrawal increases the toxicity |
| C=C(NC(C)C)c1cc2c(=O)oc3ccc(C)cc3c2s1 [Compound G1] | ~70 |  | > 500 |  |  |
| O=C1C2C3C=CC(C3)C2C(=O)N1c1nc[nH]n1 (stereo not shown) [Compound H1] | 90 |  | > 500 |  |  |
